This is an account of results in patent publication US20230116733A1, “NOVEL INDAZOLE DERIVATIVE AND USE THEREOF” (KOREA RESEARCH INSTITUTE OFCHEMICAL TECHNOLOGY, priority 2019, published 2023).

One data set has as its system A549. The experiment in a line: Assay for anticancer activity, cell viability (Cell Counting Kit-8). The class given is cell-based. The following applies: A549 cells, 10 μM compound, 3 days. The method, then:
(§1) Assay for anticancer activity was conducted as follows. Corresponding cancer cells were seeded at a density of 4,000 cells/well into 96-well plates and stabilized for 24 hours. Thereafter, the cells in each well were treated with 10 μM of the each of the compounds for 3 days. Then, cell viability was assayed using Cell Counting Kit-8 from Dojindo.
On the technique in general: Formazan colour is commonly taken as a measure of viable cells.

The subject of another data set is HepG2. Described as above. Type of data set: cell-based. The following applies: HepG2 cells, 10 μM compound, 3 days. The method, then:
as §1

A further data set addresses T1, TRIB2 (Homo sapiens, UniProt Q92519).
T1 sequence (Q92519 1-343): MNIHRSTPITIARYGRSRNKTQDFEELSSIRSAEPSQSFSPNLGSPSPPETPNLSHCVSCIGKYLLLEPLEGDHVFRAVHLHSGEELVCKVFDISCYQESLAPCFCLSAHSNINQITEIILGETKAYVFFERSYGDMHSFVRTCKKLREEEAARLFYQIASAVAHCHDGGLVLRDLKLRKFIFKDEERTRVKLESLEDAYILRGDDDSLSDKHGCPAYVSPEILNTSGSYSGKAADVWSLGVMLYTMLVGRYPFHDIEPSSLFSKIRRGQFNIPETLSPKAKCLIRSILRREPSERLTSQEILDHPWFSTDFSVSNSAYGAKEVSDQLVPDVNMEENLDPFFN
The experiment in a line: TRIB2 kinase activity assay (Eurofins, 33P-ATP filter binding). The class given is biochemical. Particulars: human TRIB2, 15 μM gamma-33P-ATP, 120 minutes at room temperature; read-out: TRIB2 Kimase activity assay IC50. On the set-up: purchased Eurofins. Here is the method:
TRIB2 kinase activity assay was conducted in Eurofins. […] Afterward, the reaction was terminated with 0.5% phosphoric acid.

As to `CC1NCCc2ccc(NC(=O)c3n[nH]c4ccc(-c5cccnc5F)cc34)cc21` (stereo not drawn) [Compound 63, 5-(2-fluoropyridin-3-yl)-N-(1-methyl-1,2,3,4-tetrahydroisoquinolin-7-yl)-1H-indazole-3-carboxamide], the “Cell viability (% of Con. 10 μM) A549” value with A549 is 4 % of Con. The “Cell viability (% of Con. 10 μM) HepG2” value in the data set on HepG2 is 7 % of Con. Besides, on TRIB2, the IC50 was 1 to 10 nM. In the case of `O=C(NC1CCN(C(=O)c2ccccc2)CC1)c1n[nH]c2ccc(-c3cccnc3F)cc12` [Compound 12, N-(1-benzoylpiperidin-4-yl)-5-(2-fluoropyridin-3-yl)-1H-indazole-3-carboxamide], on TRIB2, the IC50 is 10 to 100 nM. The same measure, in the same setting: in the case of `N[C@H]1CC[C@H](NC(=O)c2n[nH]c3ccc(-c4cccnc4F)cc23)CC1` [Compound 19, N-((1r, 4r)-4-aminocyclohexyl)-5-(2-fluoropyridin-3-yl)-1H-indazole-3-carboxamide] it was 100 to 1000 nM; in that of `O=C(NC1CCN(C(=O)c2ccccc2)CC1)c1nn(C(=O)c2ccccc2)c2ccc(-c3cccnc3F)cc12` [Compound 10, 1-benzoyl-N-(1-benzoylpiperidin-4-yl)-5-(2-fluoropyridin-3-yl)-1H-indazole-3-carboxamide], 10 to 100 nM. For the compound `O=C(NC1CCN(C(=O)C2CC2)CC1)c1nn(C(=O)C2CC2)c2ccc(-c3cccnc3F)cc12` [Compound 11, 1-(cyclopropanecarbonyl)-N-(1-(cyclopropanecarbonyl)piperidin-4-yl)-5-(2-fluoropyridin-3-yl)-1H-indazole-3-carboxamide], the IC50 at TRIB2 lay within 100 to 1000 nM. For the compound `N[C@H]1CC[C@@H](NC(=O)c2n[nH]c3ccc(-c4cccnc4F)cc23)CC1` [Compound 18, N-((1s, 4s)-4-aminocyclohexyl)-5-(2-fluoropyridin-3-yl)-1H-indazole-3-carboxamide], at TRIB2, the IC50 is 100 to 1000 nM. For the compound `O=C(NCCN1CCOCC1)c1n[nH]c2ccc(-c3cccnc3F)cc12` [Compound 22, 5-(2-fluoropyridin-3-yl)-N-(2-morpholinoethyl)-1H-indazole-3-carboxamide], on TRIB2, the IC50 lay within 100 to 1000 nM. For the compound `O=C(Nc1ccncc1)c1n[nH]c2ccc(-c3cnn(Cc4ccccc4)c3)cc12` [Compound 33, 5-(1-benzyl-1H-pyrazol-4-yl)-N-(pyridin-4-yl)-1H-indazole-3-carboxamide], the “Cell viability (% of Con. 10 μM) A549” value in the data set on A549 is reported as 20 % of Con. In addition, the IC50 on TRIB2 lay in the range of 1 to 10 nM. As to `O=C(c1n[nH]c2ccc(-c3cccnc3F)cc12)N1CCc2ccccc2C1` [Compound 21, (3,4-dihydroisoquinolin-2-(1H)-yl)(5-(2-fluoropyridin-3-yl)-1H-indazol-3-yl)methanone], on TRIB2, the IC50 lay in the range of 100 to 1000 nM.

In the case of `O=C(Nc1ccc2c(c1)CN(C(=O)C(F)(F)F)CC2)c1n[nH]c2ccc(-c3cccnc3F)cc12` [Compound 24, 5-(2-fluoropyridin-3-yl)-N-(2-(2,2,2-trifluoroacetyl)-1,2,3,4-tetrahydroisoquinolin-7-yl)-1H-indazole-3-carboxamide], the “Cell viability (% of Con. 10 μM) HepG2” value with HepG2 is on record as 10 % of Con. The IC50 at TRIB2 lay within 1 to 10 nM. For `O=C(N[C@H]1CC[C@H](O)CC1)c1n[nH]c2ccc(-c3cccnc3F)cc12` [Compound 16, 5-(2-fluoropyridin-3-yl)-N-((1r,4r)-4-hydroxycyclohexyl)-1H-indazole-3-carboxamide], the IC50 on TRIB2 was 100 to 1000 nM. For the compound `O=C(NC1CCCCC1)c1n[nH]c2ccc(-c3cccnc3F)cc12` [Compound 14, N-Cyclohexyl-5-(2-fluoropyridin-3-yl)-1H-indazole-3-carboxamide], the IC50 on TRIB2 lay within 100 to 1000 nM. On the same count and under the same terms, in the case of `O=C(NC1CCNCC1)c1n[nH]c2ccc(-c3ccnc(F)c3)cc12` [Compound 13, 5-(2-fluoropyridin-4-yl)-N-(piperidin-4-yl)-1H-indazole-3-carboxamide] it was 10 to 100 nM; in that of `O=C(NC1CCNC1)c1n[nH]c2ccc(-c3cccnc3F)cc12` (stereo not drawn) [Compound 20, 5-(2-fluoropyridin-3-yl)-N-(pyrrodin-3-yl)-1H-indazole-3-carboxamide], 10 to 100 nM.

Usually IC50 stands for the concentration that inhibits the measured activity by half.
